# Assay results: PubChem BioAssay (NCI)
#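 The compound was tested at five concentrations on cells cultured in 96-well plates, with a 48-hour exposure period. TGI: concentration producing complete growth inhibition.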
# Test system: SF-295 CNS
# Experiment: NCI tumour cell line growth inhibition, 48 h
row,SMILES,TGI [µM]
1,O=C(O/C(=C(/N=Nc1ccccc1)c1ccccc1)c1ccccc1)c1ccccc1,> 100
2,COc1cc([C@@H]2c3cc4c(cc3[C@@H](OC(=O)c3ccc(N)cc3)C3COC(=O)[C@@H]32)OCO4)cc(OC)c1O (stereo partly drawn),> 95
3,Cc1ccc(SSc2ccc(C)cc2C(=O)O)c(C(=O)O)c1,> 100
4,CC(=O)NNc1nc(C)c(C(=O)/C=C/c2ccccc2Cl)s1,> 100
5,O=C1NC2(CCCCCC2)C2CCCCCCC12O (stereo not drawn),> 100

# Test system: HT29 colon
# Experiment: NCI tumour cell line growth inhibition, 48 h
row,SMILES,TGI [µM]
1,CCC12CCCN(Cc3ccccc3)C1c1c(n(C)c3ccccc13)C(C(=O)OC)C2 (stereo not drawn),> 239
2,COc1ccc2c(c1)[n+]([O-])c(-c1ccc(OC)c(OC)c1)c(N)[n+]2[O-],> 100
3,CC(C)CC(NC(=O)OC(C)(C)C)C(=O)Nc1ccc(Nc2nc(F)nc(-c3c4ccccc4c4n3CCS4)n2)cc1 (stereo not drawn),34.8
4,O=C(O/C(=C(/N=Nc1ccccc1)c1ccccc1)c1ccccc1)c1ccccc1,> 100
5,COc1cc([C@@H]2c3cc4c(cc3[C@@H](OC(=O)c3ccc(N)cc3)C3COC(=O)[C@@H]32)OCO4)cc(OC)c1O (stereo partly drawn),21.2
6,Cc1ccc(SSc2ccc(C)cc2C(=O)O)c(C(=O)O)c1,> 100
7,CC(=O)NNc1nc(C)c(C(=O)/C=C/c2ccccc2Cl)s1,> 100
8,O=C1NC2(CCCCCC2)C2CCCCCCC12O (stereo not drawn),> 100

# Test system: DMS 114 small cell lung
# Experiment: NCI tumour cell line growth inhibition, 48 h
row,SMILES,TGI [µM]
1,CCC12CCCN(Cc3ccccc3)C1c1c(n(C)c3ccccc13)C(C(=O)OC)C2 (stereo not drawn),> 239
2,COc1ccc2c(c1)[n+]([O-])c(-c1ccc(OC)c(OC)c1)c(N)[n+]2[O-],> 100
3,CC(C)CC(NC(=O)OC(C)(C)C)C(=O)Nc1ccc(Nc2nc(F)nc(-c3c4ccccc4c4n3CCS4)n2)cc1 (stereo not drawn),37.5
4,O=C(O/C(=C(/N=Nc1ccccc1)c1ccccc1)c1ccccc1)c1ccccc1,> 100
5,CC(=O)NNc1nc(C)c(C(=O)/C=C/c2ccccc2Cl)s1,> 100
6,O=C1NC2(CCCCCC2)C2CCCCCCC12O (stereo not drawn),> 100

# Test system: SW-620 colon
# Experiment: NCI tumour cell line growth inhibition, 48 h
row,SMILES,TGI [µM]
1,CCC12CCCN(Cc3ccccc3)C1c1c(n(C)c3ccccc13)C(C(=O)OC)C2 (stereo not drawn),> 239
2,COc1ccc2c(c1)[n+]([O-])c(-c1ccc(OC)c(OC)c1)c(N)[n+]2[O-],> 100
3,CC(C)CC(NC(=O)OC(C)(C)C)C(=O)Nc1ccc(Nc2nc(F)nc(-c3c4ccccc4c4n3CCS4)n2)cc1 (stereo not drawn),30.7
4,O=C(O/C(=C(/N=Nc1ccccc1)c1ccccc1)c1ccccc1)c1ccccc1,> 100
5,COc1cc([C@@H]2c3cc4c(cc3[C@@H](OC(=O)c3ccc(N)cc3)C3COC(=O)[C@@H]32)OCO4)cc(OC)c1O (stereo partly drawn),> 95
6,Cc1ccc(SSc2ccc(C)cc2C(=O)O)c(C(=O)O)c1,> 100
7,CC(=O)NNc1nc(C)c(C(=O)/C=C/c2ccccc2Cl)s1,> 100
8,O=C1NC2(CCCCCC2)C2CCCCCCC12O (stereo not drawn),> 100

# Test system: EKVX NSCLC
# Experiment: NCI tumour cell line growth inhibition, 48 h
row,SMILES,TGI [µM]
1,CCC12CCCN(Cc3ccccc3)C1c1c(n(C)c3ccccc13)C(C(=O)OC)C2 (stereo not drawn),> 239
2,COc1ccc2c(c1)[n+]([O-])c(-c1ccc(OC)c(OC)c1)c(N)[n+]2[O-],> 100
3,CC(C)CC(NC(=O)OC(C)(C)C)C(=O)Nc1ccc(Nc2nc(F)nc(-c3c4ccccc4c4n3CCS4)n2)cc1 (stereo not drawn),37.8
4,O=C(O/C(=C(/N=Nc1ccccc1)c1ccccc1)c1ccccc1)c1ccccc1,> 100
5,COc1cc([C@@H]2c3cc4c(cc3[C@@H](OC(=O)c3ccc(N)cc3)C3COC(=O)[C@@H]32)OCO4)cc(OC)c1O (stereo partly drawn),> 95
6,Cc1ccc(SSc2ccc(C)cc2C(=O)O)c(C(=O)O)c1,> 100
7,CC(=O)NNc1nc(C)c(C(=O)/C=C/c2ccccc2Cl)s1,> 100
8,O=C1NC2(CCCCCC2)C2CCCCCCC12O (stereo not drawn),> 100

# Test system: DMS 273 small cell lung
# Experiment: NCI tumour cell line growth inhibition, 48 h
row,SMILES,TGI [µM]
1,CCC12CCCN(Cc3ccccc3)C1c1c(n(C)c3ccccc13)C(C(=O)OC)C2 (stereo not drawn),> 239
2,COc1ccc2c(c1)[n+]([O-])c(-c1ccc(OC)c(OC)c1)c(N)[n+]2[O-],> 100
3,CC(C)CC(NC(=O)OC(C)(C)C)C(=O)Nc1ccc(Nc2nc(F)nc(-c3c4ccccc4c4n3CCS4)n2)cc1 (stereo not drawn),30.6
4,COc1cc([C@@H]2c3cc4c(cc3[C@@H](OC(=O)c3ccc(N)cc3)C3COC(=O)[C@@H]32)OCO4)cc(OC)c1O (stereo partly drawn),61.9
5,Cc1ccc(SSc2ccc(C)cc2C(=O)O)c(C(=O)O)c1,> 100
6,CC(=O)NNc1nc(C)c(C(=O)/C=C/c2ccccc2Cl)s1,> 100
7,O=C1NC2(CCCCCC2)C2CCCCCCC12O (stereo not drawn),> 100

# Test system: UACC-62 melanoma
# Experiment: NCI tumour cell line growth inhibition, 48 h
row,SMILES,TGI [µM]
1,CCC12CCCN(Cc3ccccc3)C1c1c(n(C)c3ccccc13)C(C(=O)OC)C2 (stereo not drawn),> 239
2,COc1ccc2c(c1)[n+]([O-])c(-c1ccc(OC)c(OC)c1)c(N)[n+]2[O-],> 100
3,CC(C)CC(NC(=O)OC(C)(C)C)C(=O)Nc1ccc(Nc2nc(F)nc(-c3c4ccccc4c4n3CCS4)n2)cc1 (stereo not drawn),31.9
4,O=C(O/C(=C(/N=Nc1ccccc1)c1ccccc1)c1ccccc1)c1ccccc1,> 100
5,COc1cc([C@@H]2c3cc4c(cc3[C@@H](OC(=O)c3ccc(N)cc3)C3COC(=O)[C@@H]32)OCO4)cc(OC)c1O (stereo partly drawn),19.5
6,Cc1ccc(SSc2ccc(C)cc2C(=O)O)c(C(=O)O)c1,> 100
7,CC(=O)NNc1nc(C)c(C(=O)/C=C/c2ccccc2Cl)s1,> 100
8,O=C1NC2(CCCCCC2)C2CCCCCCC12O (stereo not drawn),> 100

# Test system: OVCAR-4 ovarian
# Experiment: NCI tumour cell line growth inhibition, 48 h
row,SMILES,TGI [µM]
1,COc1ccc2c(c1)[n+]([O-])c(-c1ccc(OC)c(OC)c1)c(N)[n+]2[O-],> 100
2,O=C(O/C(=C(/N=Nc1ccccc1)c1ccccc1)c1ccccc1)c1ccccc1,> 100
3,COc1cc([C@@H]2c3cc4c(cc3[C@@H](OC(=O)c3ccc(N)cc3)C3COC(=O)[C@@H]32)OCO4)cc(OC)c1O (stereo partly drawn),> 95
